Paper PMC8510274, “Plasma-Induced Oxidation Products of (–)-Epigallocatechin Gallate with Digestive Enzymes Inhibitory Effects” (Molecules, 2021)
Read-outs that look alike come from different tables or passages of the source.

Key:
[1] = molecular target: T1, Porcine pancreatic α-amylase (Sus scrofa, UniProt P00690); assay: α-amylase inhibition assay (potato starch, DNS reagent); type: biochemical
T1 construct: purchased Sigma-Aldrich; host or cells: porcine pancreas
T1 sequence (P00690 16-511): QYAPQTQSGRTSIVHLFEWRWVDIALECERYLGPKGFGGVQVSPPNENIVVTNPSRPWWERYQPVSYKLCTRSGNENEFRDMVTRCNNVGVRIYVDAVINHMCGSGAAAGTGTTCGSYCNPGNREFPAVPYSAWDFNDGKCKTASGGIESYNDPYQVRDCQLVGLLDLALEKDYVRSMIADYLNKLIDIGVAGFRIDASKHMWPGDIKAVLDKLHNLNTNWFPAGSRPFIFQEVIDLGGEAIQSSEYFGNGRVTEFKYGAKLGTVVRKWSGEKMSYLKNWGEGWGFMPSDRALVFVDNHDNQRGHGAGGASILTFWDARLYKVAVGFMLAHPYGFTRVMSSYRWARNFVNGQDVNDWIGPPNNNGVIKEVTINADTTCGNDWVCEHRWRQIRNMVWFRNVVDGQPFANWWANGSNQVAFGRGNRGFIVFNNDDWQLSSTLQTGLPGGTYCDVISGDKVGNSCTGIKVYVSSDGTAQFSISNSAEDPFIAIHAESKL
Method: (§1) The specific optical rotation was obtained using a JASCO P-2000 polarimeter (JASCO, Tokyo, Japan), and fast atom bombardment mass spectrometry (FABMS) was recorded on a JMS-700 spectrometer (JEOL, Tokyo, Japan) in negative mode.
(§2) The α-amylase inhibition assay was performed using a previously reported method with slight modifications. Porcine pancreatic α-amylase (1 unit, 90 µL) was incubated with the sample, and the positive control, at various concentrations. The reaction was started by adding 100 µL of a 1% potato starch solution, in 20 mM phosphate buffer (pH 6.9), to the reaction mixture. […] The mixture was then boiled at 80 °C for 10 min in a water bath and then cooled on ice. The α-amylase inhibitory activity was measured at 540 nm using an ELISA reader. Enzyme inhibition (%) = [1−(A1/A0)] × 100(1) where A0 and A1 are the absorbance of the control and sample, respectively. The α-glucosidase and α-amylase inhibition (%) was calculated, and the half-maximal inhibitory concentration (IC50) was determined by linear regression analysis of the inhibitory activities under the assay conditions.

[2] = molecular target: T2, α-glucosidase (EC 3.2.1.20) from Saccharomyces cerevisiae (Saccharomyces cerevisiae, UniProt P53341); assay: biochemical
T2 construct: purchased Sigma-Aldrich
T2 sequence (P53341 whole entry): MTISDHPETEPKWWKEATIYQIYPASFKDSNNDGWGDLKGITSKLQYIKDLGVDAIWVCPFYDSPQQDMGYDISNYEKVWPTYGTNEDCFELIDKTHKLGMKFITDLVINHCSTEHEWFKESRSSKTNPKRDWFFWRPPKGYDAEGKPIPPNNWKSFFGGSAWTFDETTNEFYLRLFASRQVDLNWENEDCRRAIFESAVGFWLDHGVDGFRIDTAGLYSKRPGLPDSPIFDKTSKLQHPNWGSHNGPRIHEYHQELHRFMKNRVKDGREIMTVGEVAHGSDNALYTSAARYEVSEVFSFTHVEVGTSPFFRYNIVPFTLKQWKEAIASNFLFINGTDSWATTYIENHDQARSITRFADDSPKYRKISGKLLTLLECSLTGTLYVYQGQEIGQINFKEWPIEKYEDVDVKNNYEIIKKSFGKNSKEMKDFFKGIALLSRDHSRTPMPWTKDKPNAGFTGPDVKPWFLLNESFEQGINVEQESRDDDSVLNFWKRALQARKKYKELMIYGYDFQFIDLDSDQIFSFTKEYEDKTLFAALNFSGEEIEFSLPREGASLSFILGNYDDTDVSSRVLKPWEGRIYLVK
Method: as §1
The α-glucosidase inhibitory activities of the compounds were evaluated using a minor modification of a previously reported method. The reaction mixture consisted of an enzyme solution (0.5 unit of α-glucosidase, 90 μL), a substrate (1 mM p-NPG, 100 μL) in a 0.1 M phosphate buffer (pH 7.0), and the isolated compounds, and positive control in 5% DMSO (10 μL). After incubation at 37 °C for 30 min, 0.1 M NaOH was added to quench the reaction.
as §2

[3] = isolated compounds, triplicate, acarbose positive control, read-out: IC50 Value α-Amylase (converted)
[4] = IC50 Value α-Glucosidase, isolated compounds, triplicate, acarbose positive control

Row | IC50 ([2]; read-out: IC50 Value α-Glucosidase) [µM] | SMILES | IC50 [1, 3] [µM] | IC50 [1] [µM] | IC50 [2, 4] [µM] | IC50 ([1]; plasma irradiation time 0 min (control, parent EGCG), read-out: IC50 Value α-Amylase (converted)) [µM] | IC50 ([2]; IC50 Value α-Glucosidase, plasma irradiation time 0 min (control, parent EGCG)) [µM]
1 | 15.9 ± 0.3 | O=C(O[C@@H]1Cc2c(O)cc(O)cc2O[C@@H]1C1=CC(=O)C2(O)C3C([C@H]4Oc5cc(O)cc(O)c5C[C@H]4OC(=O)c4cc(O)c(O)c(O)c4)=CC(=O)C4(O)C1C2(O)OC34O)c1cc(O)c(O)c(O)c1 (stereo partly shown) [Compound 1, EGCG quinone dimer A] | 18.7 ± 0.3 |  |  |  | 
2 |  | O=C(O[C@@H]1Cc2c(O)cc(O)cc2O[C@@H]1C1=CC(=O)[C@]2(O)C(=O)c3c(cc(O)c(O)c3O)[C@H]12)c1cc(O)c(O)c(O)c1 [Compound 2, theacitrinin A] |  | 25.3 ± 0.6 | 20.7 ± 0.5 |  | 
3 |  | O=C(O)c1cc(O)c(O)c(O)c1 [Compound 3, gallic acid] |  | > 300 | > 300 |  | 
4 |  | O=C(O[C@@H]1Cc2c(O)cc(O)cc2O[C@@H]1c1cc(O)c(O)c(O)c1)c1cc(O)c(O)c(O)c1 [EGCG, (−)-Epigallocatechin gallate, reference compound] | 75.5 ± 1.3 |  | 97.2 ± 1.2 | 75.3 | 97.1
